Legend:
[1] = system: m^6 A in cellular mRNA of MOLM-13 cells; assay: m^6 A-mRNA LC-MS/MS assay (m^6 A cellular assay); type: cell-based; settings: Homo sapiens, 24 hours incubation, LC-MS/MS of m^6 A/A in mRNA
Protocol: m^6 A-mRNA LC-MS/MS Assay
5×10^6 MOLM-13 (DSMZ) cells were seeded into 10 cm dishes in RPMI 1640 media containing 10% fetal bovine serum and placed in a humidified tissue culture incubator at 37° C. overnight. Compounds were resuspended in 100% DMSO and dosed into each dish at a fixed concentration to comprise an 8-point dose response with a 4-fold serial dilution ranging from 25 μM to 1.5 nM in 0.25% DMSO final and allowed to incubate for 24 hours in a humidified tissue culture incubator at 37° C. Cells were harvested by centrifugation followed by mRNA extraction using DTRECT Dynabeads mRNA DTRECT kit (Life Technologies). mRNA was quantified on NanoDrop spectrophotometer (Thermo Fisher Scientific) and digested into single nucleosides using Nucleoside Digestion Mix (New England Biolabs). Nucleosides are quantified with retention time on a BEH […] column (Waters) and the nucleoside-to-base ion mass transition of 282.1-150.1 (m^6 A) and 268-136 (A) on an API 6500+ triple quadrupole mass spectrometer. Quantification is performed in comparison with the standard curve, obtained from pure nucleoside standards (Selleck Chemicals) running with the same batch of samples. Percentage m^6 A in cellular mRNA is calculated as 100*(m^6 A/A).

METTL3/METTL14 = METTL3/METTL14 (Homo sapiens, UniProt Q86U44); assay: METTL3-14 standard enzyme assay (3H-SAM flashplate scintillation); type: biochemical; settings: METTL3/METTL14 2.5 nM, RNA 100 nM, 3H-SAM 100 nM, 30 min
In short: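 METTL3/METTL14 (2.5 nM final) preincubated 5 min with compound in 20 mM HEPES pH 7.5, 50 mM KCl, 250 μM MgCl2, 1 mM DTT, ambient temperature; started with 100 nM 3′-biotinylated RNA (UCUGGACUAAA) and 100 nM 3H-SAM. After 30 min, quenched with 15 μM cold SAM; methylated RNA captured on streptavidin flashplates and counted by scintillation.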

MOLM-13 cells = assay: MOLM-13 96 Hour cell proliferation assay (Cell Titer-Glo); type: cell-based; settings: Homo sapiens
Protocol: MOLM-13 96 Hour Cell Proliferation Assay
MOLM-13 (DSMZ) cells were seeded at 600 cells per well in a volume of 44 μL in a Greiner Bio-One CELLSTAR™ 384 Well Polystyrene Cell Culture clear bottom microplate in RPMI 1640 media containing 10% fetal bovine serum using a Multidrop Combi (ThermoFisher Scientific). Cells were incubated overnight at 37° C. in a humidified tissue culture incubator. To prevent evaporation or to reduce edge effect, add 50 μL or more H2O to an empty plate, cover, and place on top of the cell plates. The Mosquito® HTS Liquid Handler was used to make a compound/media intermediate plate by aliquoting 1 μL of compound from the initial compound dilution plate (concentrations ranging from 10.0 mM to 38.0 nM in 100% DMSO) into Bio-One 384-well polypropylene conical bottom microplate containing 49 μL of media containing the appropriate serum (50-fold dilution, 2% DMSO, compound concentrations ranging from 200.0 μM and […]). The Apricot liquid handling system was used to transfer 6.2 μL compounds from the intermediate plate into the seeding plate containing 44 μL cells (8-fold dilution spanning concentrations 25.0 μM to […], 0.25% DMSO final), and placed in a humidified tissue culture incubator at 37° C. After 96 hours, 25 μL of Cell Titer-Glo reagent (Promega) was added to each well using an Integra liquid handling system. The plate was protected from light using TopSeal-A (Black) film over the entire plate, added White Bottom seal film on the bottom of the entire plate for a better reading on the Envision, and placed on an IKA plate shaker for at 300 rpm for 10 minutes at room temperature. The plate was read on an EnVision plate reader (Perkin Elmer) using the Ultra Sensitive Luminescence protocol. Data analysis was performed by normalizing the raw luminescence units to an average of the positive control values for staurosporine (100% cell death) and the negative control values for DMSO (0% cell death). An IC50 was calculated using a 4-parameter logistic nonlinear regression model in GraphPad Prism.

PRMT5-MEP50 = PRMT5-MEP50 (Homo sapiens, UniProt O14744); assay: PRMT5 assay (3H-SAM flashplate scintillation); type: biochemical; settings: PRMT5-MEP50 2.5 nM, histone H4 peptide 100 nM, 3H-SAM 250 nM, 60 min
In short: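 PRMT5-MEP50 (2.5 nM final) preincubated 5 min with compound, then reacted 60 min at ambient temperature with 100 nM biotinylated N-acetyl histone H4 peptide and 250 nM 3H-SAM in 20 mM Tris-HCl pH 8.0, 1 mM DTT, 0.01% Tween. Quenched with 15 μM cold SAM; methylated peptide captured on streptavidin flashplates, scintillation counted.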

Sequence of METTL3/METTL14 (Q86U44 whole entry, species assumed): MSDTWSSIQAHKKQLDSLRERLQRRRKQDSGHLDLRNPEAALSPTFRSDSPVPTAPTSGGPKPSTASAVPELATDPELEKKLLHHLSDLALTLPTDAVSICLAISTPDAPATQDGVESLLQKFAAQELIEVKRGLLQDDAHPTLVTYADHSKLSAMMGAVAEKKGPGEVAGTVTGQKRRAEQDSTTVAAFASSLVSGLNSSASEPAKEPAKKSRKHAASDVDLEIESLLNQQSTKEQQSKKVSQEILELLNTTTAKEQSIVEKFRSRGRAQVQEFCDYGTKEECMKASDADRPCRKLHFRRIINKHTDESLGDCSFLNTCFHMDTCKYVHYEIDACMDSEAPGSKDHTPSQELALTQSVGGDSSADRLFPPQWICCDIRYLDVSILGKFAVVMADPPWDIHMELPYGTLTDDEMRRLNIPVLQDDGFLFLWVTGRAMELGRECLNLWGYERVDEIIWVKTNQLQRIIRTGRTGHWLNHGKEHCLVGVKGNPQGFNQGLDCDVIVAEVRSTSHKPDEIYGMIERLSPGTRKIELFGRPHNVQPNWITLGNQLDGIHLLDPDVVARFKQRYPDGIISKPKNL
Sequence of METTL3/METTL14 (Q9HCE5 whole entry partner, species assumed): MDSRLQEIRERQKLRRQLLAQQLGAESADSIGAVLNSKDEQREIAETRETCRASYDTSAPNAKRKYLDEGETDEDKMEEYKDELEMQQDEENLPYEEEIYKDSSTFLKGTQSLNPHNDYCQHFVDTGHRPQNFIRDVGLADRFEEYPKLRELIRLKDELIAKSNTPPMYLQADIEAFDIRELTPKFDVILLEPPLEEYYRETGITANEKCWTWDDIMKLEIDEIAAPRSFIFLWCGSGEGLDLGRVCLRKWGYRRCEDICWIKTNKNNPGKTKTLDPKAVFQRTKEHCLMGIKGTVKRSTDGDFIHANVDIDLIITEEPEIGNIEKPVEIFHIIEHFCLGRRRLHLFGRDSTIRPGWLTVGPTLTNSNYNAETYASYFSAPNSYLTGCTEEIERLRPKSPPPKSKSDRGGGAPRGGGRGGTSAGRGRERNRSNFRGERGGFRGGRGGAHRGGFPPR
Sequence of PRMT5-MEP50 (O14744 whole entry): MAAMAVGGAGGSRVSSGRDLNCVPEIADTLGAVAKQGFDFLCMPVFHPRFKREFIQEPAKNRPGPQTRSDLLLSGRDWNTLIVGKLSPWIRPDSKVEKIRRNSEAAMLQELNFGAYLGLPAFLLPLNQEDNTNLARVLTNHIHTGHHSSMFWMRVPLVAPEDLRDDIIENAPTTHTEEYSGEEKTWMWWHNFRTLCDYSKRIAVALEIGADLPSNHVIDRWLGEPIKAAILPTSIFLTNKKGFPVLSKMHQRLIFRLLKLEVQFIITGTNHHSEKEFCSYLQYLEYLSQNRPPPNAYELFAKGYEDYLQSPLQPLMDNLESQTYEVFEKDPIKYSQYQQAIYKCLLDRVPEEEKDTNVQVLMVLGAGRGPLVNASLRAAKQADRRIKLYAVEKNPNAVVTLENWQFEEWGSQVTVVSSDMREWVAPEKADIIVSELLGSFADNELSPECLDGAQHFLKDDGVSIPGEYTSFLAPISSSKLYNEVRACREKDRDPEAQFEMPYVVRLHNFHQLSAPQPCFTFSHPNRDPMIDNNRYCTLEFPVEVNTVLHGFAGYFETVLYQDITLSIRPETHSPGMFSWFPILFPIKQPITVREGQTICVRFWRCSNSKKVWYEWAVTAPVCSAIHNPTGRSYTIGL
Sequence of PRMT5-MEP50 (Q9BQA1 whole entry partner): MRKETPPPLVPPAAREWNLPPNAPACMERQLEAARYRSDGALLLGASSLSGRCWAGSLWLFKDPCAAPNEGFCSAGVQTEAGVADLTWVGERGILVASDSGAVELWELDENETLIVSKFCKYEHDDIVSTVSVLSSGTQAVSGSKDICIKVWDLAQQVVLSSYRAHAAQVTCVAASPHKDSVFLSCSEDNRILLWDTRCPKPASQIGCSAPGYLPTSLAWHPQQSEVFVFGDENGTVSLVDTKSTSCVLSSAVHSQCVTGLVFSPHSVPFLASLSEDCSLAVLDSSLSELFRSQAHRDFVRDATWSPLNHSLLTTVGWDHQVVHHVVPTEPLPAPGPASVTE

| SMILES | IC50 [1] [nM] | IC50 (METTL3/METTL14) [nM] | IC50 (MOLM-13 cells) [nM] | IC50 (PRMT5-MEP50) [nM] |
| --- | --- | --- | --- | --- |
| CCc1cc(N(C)C)c2ccc(OCc3cncc(-n4cc(-c5ccn(C)n5)c5c(N)ncnc54)c3)cc2n1 [Compound I-147] | ≥ 10000 | < 10 | < 1000 |  |
| CCc1cc(N(C)CCN(C)C)c2ccc(CCc3cncc(-n4cc(-c5ccn(C)n5)c5c(N)ncnc54)c3)cc2n1 [Compound I-155] | 1000 to 10000 | < 10 | < 1000 |  |
| Cn1ccc(-c2cn(-c3cncc(COc4ccc5ccc(N6CC(O)C6)nc5c4)c3)c3ncnc(N)c23)n1 [Compound I-193] |  | < 10 | 1000 to 10000 | > 1000 |
| Cn1ccc(-c2cn(-c3cncc(COc4ccc5ccc(N6CC(F)(F)C6)nc5c4)c3)c3ncnc(N)c23)n1 [Compound I-212] |  | < 10 | 1000 to 10000 | > 1000 |
| Cn1ccc(-c2cn(-c3cncc(COc4ccc5ccc(N6CC(N)C6)nc5c4)c3)c3ncnc(N)c23)n1 [Compound I-213] |  | < 10 | < 1000 | > 1000 |
| Cn1ccc(-c2cn(-c3cncc(COc4ccc5ccc(N6CC(=O)C6)nc5c4)c3)c3ncnc(N)c23)n1 [Compound I-217] |  | < 10 | 1000 to 10000 | > 1000 |
| CCc1cc(NCCN(C)C)c2c(F)cc(CCc3cncc(-n4cc(-c5ccn(C)n5)c5c(N)ncnc54)c3)cc2n1 [Compound I-227] | 1000 to 10000 | < 10 | < 1000 |  |
| CCc1cc(NCCN(C)C)c2c(F)cc(OCc3cncc(-n4cc(-c5ccn(C)n5)c5c(N)ncnc54)c3)cc2n1 [Compound I-230] | ≥ 10000 | < 10 | 1000 to 10000 |  |
| CCc1cc(NCCOC)c2ccc(OCc3cncc(-n4cc(COC)c5c(N)ncnc54)c3)cc2n1 [Compound I-231] |  | < 10 | < 1000 | > 1000 |
| CCc1cc(N(C)C)c2ccc(OCc3cncc(-n4ccc5c(N)ncnc54)c3)cc2n1 [Compound I-232] |  | 10 to 100 | < 1000 | > 1000 |
| CNc1ccc2ccc(OCc3cncc(-n4cc(-c5ccc(CNCCS(C)(=O)=O)o5)c5c(N)ncnc54)c3)cc2n1 [Compound I-236] | 1000 to 10000 | < 10 | 1000 to 10000 |  |
| CC(=O)c1cn(-c2cncc(COc3ccc4ccc(N5CCC5)nc4c3)c2)c2ncnc(N)c12 [Compound I-238] |  | < 10 | ≥ 10000 | > 1000 |
| Cc1nc(-c2cn(-c3cncc(COc4ccc5ccc(N6CCC6)nc5c4)c3)c3ncnc(N)c23)co1 [Compound I-239] |  | < 10 | 1000 to 10000 | > 1000 |

— patent US20220372040A1, “METTL3 MODULATORS” (Accent Therapeutics, Inc., priority 2020, published 2022)
